Experimental data from patent US20230265151A1, “GIP/GLP1 CO-AGONIST COMPOUNDS” (priority 2020, published 2023).
Like-named read-outs stand apart in the source and are kept apart here. *1 amine or outer side, *2 acyl side, *3 side chain or, on linkers, in order; H or OH if unused. Where a SMILES comes first, the peptide text is derived from it. Side-chain parts run from the residue outwards. [ ]: non-standard residue; d: D form. The star is where a group is joined. Decanoyl(10-(4-HOOC-PhO)) = O=C(O)c1ccc(OCCCCCCCCCC(=O)*)cc1; αMePhe(2-F) = C[C@](N)(Cc1ccccc1F)C(=O)O; γGlu = O=C(O)[C@H](CCC(=O)[*:2])N[*:1]; αMeY = C[C@](N)(Cc1ccc(O)cc1)C(=O)O; 4Pal = N[C@@H](Cc1ccncc1)C(=O)O; αMeL = CC(C)C[C@](C)(N)C(=O)O; Orn = NCCC[C@H](N)C(=O)O; AEEA = NCCOCCOCC(=O)O; Aib = CC(C)(N)C(=O)O

Legend:
Type in all cases: cell-based
hGIPR = target: T1, hGIPR (Homo sapiens, UniProt P48546); test: Functional cAMP formation (HTRF) in HEK-293 clonal cells expressing hGIPR, 0.1% bovine casein, without or with 1.0% human serum albumin; conditions: for EC50: cAMP, 0.1% bovine casein (no human serum albumin), geometric mean
T1 construct: expressed in transfected cells
T1 sequence (P48546 22-466): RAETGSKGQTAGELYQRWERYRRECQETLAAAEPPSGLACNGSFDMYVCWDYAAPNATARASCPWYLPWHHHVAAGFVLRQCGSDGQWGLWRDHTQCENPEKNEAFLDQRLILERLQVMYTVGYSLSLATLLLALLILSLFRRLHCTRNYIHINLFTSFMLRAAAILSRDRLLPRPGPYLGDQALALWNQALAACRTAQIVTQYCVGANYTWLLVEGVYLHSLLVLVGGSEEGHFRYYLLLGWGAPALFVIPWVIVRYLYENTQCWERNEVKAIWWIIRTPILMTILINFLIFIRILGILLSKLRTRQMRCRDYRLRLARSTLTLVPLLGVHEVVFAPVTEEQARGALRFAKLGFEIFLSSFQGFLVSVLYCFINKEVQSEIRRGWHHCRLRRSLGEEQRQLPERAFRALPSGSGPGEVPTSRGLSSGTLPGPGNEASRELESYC
In short: (§1)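 Cells were stimulated with peptide for 30 min at 37° C, then intracellular cAMP was measured by competitive HTRF (665/620 nm ratio) and converted to nM using a cAMP standard curve. Relative EC50 and Emax came from four-parameter logistic fits of percent maximal response against peptide concentration.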

hGCGR = target: T2, hGCGR (Homo sapiens, UniProt P47871); test: Functional cAMP formation (HTRF) in HEK-293 clonal cells expressing hGCGR, 0.1% bovine casein, without or with 1.0% human serum albumin
T2 construct: expressed in transfected cells
In short: as §1

hGLP-1R = hGLP-1R (Homo sapiens, UniProt P43220); test: Functional cAMP formation (HTRF) in HEK-293 clonal cells expressing hGLP-1R, 0.1% bovine casein, without or with 1.0% human serum albumin; design: expressed in transfected cells; conditions: for EC50: geometric mean
In short: as §1

hGLP-1R, sequence (P43220 24-463): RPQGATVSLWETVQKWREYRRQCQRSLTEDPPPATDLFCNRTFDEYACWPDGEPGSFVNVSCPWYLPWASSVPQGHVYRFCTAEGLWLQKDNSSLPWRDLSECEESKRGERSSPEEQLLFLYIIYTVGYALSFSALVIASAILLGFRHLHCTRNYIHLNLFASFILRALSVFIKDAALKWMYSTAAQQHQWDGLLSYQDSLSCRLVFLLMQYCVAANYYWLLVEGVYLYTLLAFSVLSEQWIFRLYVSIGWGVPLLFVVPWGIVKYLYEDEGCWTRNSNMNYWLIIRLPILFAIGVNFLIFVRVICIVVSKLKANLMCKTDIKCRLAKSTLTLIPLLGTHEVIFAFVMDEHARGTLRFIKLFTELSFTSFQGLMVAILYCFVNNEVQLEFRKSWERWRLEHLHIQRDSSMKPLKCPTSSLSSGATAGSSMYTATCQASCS
T2 sequence (P47871 26-477): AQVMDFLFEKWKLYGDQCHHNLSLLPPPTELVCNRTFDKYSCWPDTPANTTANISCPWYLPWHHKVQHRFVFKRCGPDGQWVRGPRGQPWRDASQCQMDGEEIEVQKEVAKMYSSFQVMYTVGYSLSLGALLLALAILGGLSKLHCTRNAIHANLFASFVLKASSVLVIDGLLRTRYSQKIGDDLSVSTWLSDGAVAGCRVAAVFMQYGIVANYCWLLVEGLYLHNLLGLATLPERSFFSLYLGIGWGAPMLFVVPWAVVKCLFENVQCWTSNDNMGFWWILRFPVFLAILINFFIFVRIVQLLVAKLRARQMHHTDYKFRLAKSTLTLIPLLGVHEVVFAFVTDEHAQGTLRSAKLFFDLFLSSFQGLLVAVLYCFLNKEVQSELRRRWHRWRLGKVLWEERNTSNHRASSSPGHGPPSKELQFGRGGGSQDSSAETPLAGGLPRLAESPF

SMILES: CC[C@H](C)[C@H](NC(=O)[C@H](CCCN)NC(=O)[C@H](CC(=O)O)NC(=O)[C@H](CC(C)C)NC(=O)[C@](C)(CC(C)C)NC(=O)[C@@H](NC(=O)C(C)(C)NC(=O)[C@H](Cc1ccncc1)NC(=O)[C@H](CC(=O)O)NC(=O)[C@H](CO)NC(=O)[C@@H](NC(=O)[C@](C)(Cc1ccccc1F)NC(=O)[C@@H](NC(=O)CNC(=O)[C@H](CCC(=O)O)NC(=O)C(C)(C)NC(=O)[C@@H](N)Cc1ccc(O)cc1)[C@@H](C)O)[C@@H](C)O)[C@@H](C)CC)C(=O)N[C@@H](C)C(=O)N[C@@H](CCC(N)=O)C(=O)NC(C)(C)C(=O)N[C@@H](CCCCNC(=O)COCCOCCNC(=O)COCCOCCNC(=O)CC[C@H](NC(=O)CCCCCCCCCOc1ccc(C(=O)O)cc1)C(=O)O)C(=O)N[C@@H](Cc1ccccc1)C(=O)N[C@H](C(=O)N[C@H](CCC(=O)O)C(=O)N[C@@](C)(Cc1ccc(O)cc1)C(=O)N[C@@H](CC(C)C)C(=O)N[C@H](C(=O)N[C@@H](CCC(=O)O)C(=O)NCC(=O)NCC(=O)N1CCC[C@H]1C(=O)N[C@@H](CO)C(=O)N[C@@H](CO)C(=O)NCC(=O)N[C@@H](C)C(=O)N1CCC[C@H]1C(=O)N1CCC[C@H]1C(=O)N1CCC[C@H]1C(=O)N[C@@H](CO)C(=O)N[C@@H](CCCCNC(=O)COCCOCCNC(=O)COCCOCCNC(=O)CC[C@H](NC(=O)CCCCCCCCCOc1ccc(C(=O)O)cc1)C(=O)O)C(N)=O)[C@@H](C)CC)[C@@H](C)CC [Example 248] (H-Y[Aib]EGT[αMePhe(2-F)]TSD[4Pal][Aib]I[αMeL]LD[Orn]IAQ[Aib]K([AEEA-AEEA-γGlu-Decanoyl(10-(4-HOOC-PhO))])FI[dE][αMeY]LIEGGPSSGAPPPSK([AEEA-AEEA-γGlu-Decanoyl(10-(4-HOOC-PhO))])-NH2; N-terminus assumed)
- Emax (hGIPR; HEK293, read-out: hGIPR Emax, % ± SEM, 0.1% bovine casein and 1.0% human serum albumin, 37° C., percent of maximal response to GIP(1-42)NH2): 91.8%
- EC50 (hGIPR; hGIPR EC50, nM (SEM, n), incubated at 37° C.): 0.0176 nM
- EC50 (hGCGR; hGCGR EC50, nM (SEM, n), 0.1% bovine casein and 1.0% human serum albumin, 37° C., geometric mean): > 9950 nM
- EC50 (hGCGR; hGCGR EC50, nM (SEM, n), cAMP, incubated at 37° C., 0.1% bovine casein (no human serum albumin), geometric mean): > 9950 nM
- Emax (hGLP-1R; HEK293, read-out: hGLP-1R Emax, % ± SEM, percent of maximal response to GLP-1(7-36)NH2, 37° C., 0.1% bovine casein, arithmetic mean): 89.1%
- EC50 (hGLP-1R; hGLP-1R EC50, nM (SEM, n), 0.1% bovine casein and 1.0% human serum albumin, 37° C.): 56.7 nM
- EC50 (hGLP-1R; hGLP-1R EC50, nM (SEM, n), cAMP, incubated at 37° C., 0.1% bovine casein (no human serum albumin)): 0.537 nM

SMILES: CC[C@H](C)[C@H](NC(=O)[C@H](CCCN)NC(=O)[C@H](CC(=O)O)NC(=O)[C@H](CC(C)C)NC(=O)[C@](C)(CC(C)C)NC(=O)[C@@H](NC(=O)C(C)(C)NC(=O)[C@H](Cc1ccc(O)cc1)NC(=O)[C@H](CC(=O)O)NC(=O)[C@H](CO)NC(=O)[C@@H](NC(=O)[C@](C)(Cc1ccccc1F)NC(=O)[C@@H](NC(=O)CNC(=O)[C@H](CCC(=O)O)NC(=O)C(C)(C)NC(=O)[C@@H](N)Cc1ccc(O)cc1)[C@@H](C)O)[C@@H](C)O)[C@@H](C)CC)C(=O)N[C@@H](C)C(=O)N[C@@H](CCC(N)=O)C(=O)NC(C)(C)C(=O)N[C@@H](CCC(=O)O)C(=O)N[C@@H](Cc1ccccc1)C(=O)N[C@H](C(=O)N[C@@H](CCCCNC(=O)COCCOCCNC(=O)CC[C@H](NC(=O)COCCOCCNC(=O)CCCCCCCCCCCCC(=O)O)C(=O)O)C(=O)N[C@@](C)(Cc1ccc(O)cc1)C(=O)N[C@@H](CC(C)C)C(=O)N[C@H](C(=O)N[C@@H](CCCCNC(=O)COCCOCCNC(=O)CC[C@H](NC(=O)COCCOCCNC(=O)CCCCCCCCCCCCC(=O)O)C(=O)O)C(=O)NCC(=O)NCC(=O)N1CCC[C@H]1C(=O)N[C@@H](CO)C(=O)N[C@@H](CO)C(=O)NCC(=O)N[C@@H](C)C(=O)N1CCC[C@H]1C(=O)N1CCC[C@H]1C(=O)N1CCC[C@H]1C(=O)N[C@@H](CO)C(N)=O)[C@@H](C)CC)[C@@H](C)CC [Example 365]
- Emax (hGIPR; HEK293, cAMP, 37° C., 0.1% bovine casein and 1.0% human serum albumin, percent of maximal response to GIP(1-42)NH2, read-out: hGIPR Emax, % ± SEM): 93.5%
- Emax (hGIPR; HEK293, cAMP, 37° C., 0.1% bovine casein, percent of maximal response to GIP(1-42)NH2, arithmetic mean, read-out: hGIPR Emax, % ± SEM): 105%
- EC50 (hGIPR; 37° C., read-out: hGIPR EC50, nM (SEM, n)): 0.00809 nM
- EC50 (hGCGR; cAMP, 37° C., 0.1% bovine casein (no human serum albumin), geometric mean, read-out: hGCGR EC50, nM (SEM, n)): > 9950 nM
- EC50 (hGCGR; cAMP, 37° C., 0.1% bovine casein and 1.0% human serum albumin, geometric mean (SEM, n), read-out: hGCGR EC50, nM (SEM, n)): > 9950 nM
- Emax (hGLP-1R; HEK293, cAMP, 37° C., 0.1% bovine casein and 1.0% human serum albumin, percent of maximal response to GLP-1(7-36)NH2, read-out: hGLP-1R Emax, % ± SEM): 91%
- Emax (hGLP-1R; HEK293, cAMP, 37° C., 0.1% bovine casein, percent of maximal response to GLP-1(7-36)NH2, arithmetic mean, read-out: hGLP-1R Emax, % ± SEM): 98.5%
- EC50 (hGLP-1R; cAMP, 37° C., 0.1% bovine casein (no human serum albumin), read-out: hGLP-1R EC50, nM (SEM, n)): 0.362 nM

SMILES: CC[C@H](C)[C@H](NC(=O)[C@H](CCCN)NC(=O)[C@H](CC(=O)O)NC(=O)[C@H](CC(C)C)NC(=O)[C@](C)(CC(C)C)NC(=O)[C@@H](NC(=O)[C@H](CO)NC(=O)[C@H](Cc1ccncc1)NC(=O)[C@H](CC(=O)O)NC(=O)[C@H](CO)NC(=O)[C@@H](NC(=O)[C@](C)(Cc1ccccc1F)NC(=O)[C@@H](NC(=O)CNC(=O)[C@H](CCC(=O)O)NC(=O)C(C)(C)NC(=O)[C@@H](N)Cc1ccc(O)cc1)[C@@H](C)O)[C@@H](C)O)[C@@H](C)CC)C(=O)N[C@@H](C)C(=O)N[C@@H](CCC(N)=O)C(=O)NC(C)(C)C(=O)N[C@@H](CCC(=O)O)C(=O)N[C@@H](Cc1ccccc1)C(=O)N[C@H](C(=O)N[C@@H](CCCCNC(=O)[C@@H](N)CCCCNC(=O)[C@@H](N)CCCCNC(=O)CC[C@H](NC(=O)CCCCCCCCCCCCC(=O)O)C(=O)O)C(=O)N[C@@](C)(Cc1ccc(O)cc1)C(=O)N[C@@H](CC(C)C)C(=O)N[C@H](C(=O)N[C@@H](CCC(=O)O)C(=O)NCC(=O)NCC(=O)N[C@@H](CCCCNC(=O)[C@@H](N)CCCCNC(=O)[C@@H](N)CCCCNC(=O)CC[C@H](NC(=O)CCCCCCCCCCCCC(=O)O)C(=O)O)C(=O)N[C@@H](CO)C(=O)N[C@@H](CO)C(=O)NCC(=O)N[C@@H](C)C(=O)N1CCC[C@H]1C(=O)N1CCC[C@H]1C(=O)N1CCC[C@H]1C(=O)N[C@@H](CO)C(N)=O)[C@@H](C)CC)[C@@H](C)CC [Example 198]
- Emax (hGIPR; HEK293, 0.1% bovine casein and 1.0% human serum albumin, 37° C., percent of maximal response to GIP(1-42)NH2, read-out: hGIPR Emax, % ± SEM): 83.1 ± 3.45%
- Emax (hGIPR; HEK293, percent of maximal response to GIP(1-42)NH2, 37° C., 0.1% bovine casein, arithmetic mean, read-out: hGIPR Emax, % ± SEM): 94 ± 1.17%
- EC50 (hGIPR; incubated at 37° C., read-out: hGIPR EC50, nM (SEM, n)): 0.0269 nM
- EC50 (hGCGR; 0.1% bovine casein and 1.0% human serum albumin, 37° C., geometric mean, read-out: hGCGR EC50, nM (SEM, n)): > 9950 nM
- EC50 (hGCGR; cAMP, incubated at 37° C., 0.1% bovine casein (no human serum albumin), geometric mean, read-out: hGCGR EC50, nM (SEM, n)): > 9950 nM
- EC50 (hGLP-1R; 0.1% bovine casein and 1.0% human serum albumin, 37° C., read-out: hGLP-1R EC50, nM (SEM, n)): 14.5 nM
- EC50 (hGLP-1R; cAMP, incubated at 37° C., 0.1% bovine casein (no human serum albumin), read-out: hGLP-1R EC50, nM (SEM, n)): 0.362 nM
